# Measurements reported in patent US5521293A (Lever Brothers Company, Division of Conopco, Inc., priority 1995, dated 1996).
# Legend:
# Assay type in all cases: physicochemical
# Ross-Miles foam height = assay: Ross-Miles foam height; design: key: X: low water solubility. foam height cannot be measured; settings: Examples 82-83
# Description: Since most of the foaming data on surfactants is typically obtained by the Ross-Miles Foam Height Assay (Ross, J. and Miles, G. D. Am Soc. for Testing Material Method D1173-63 Philadelphia, Pa. (1953); Oil & Soap (1958) 62:1260) the foaming ability of these surfactants were acquired using this method.
# In the Ross-Miles method, 200 mL of a surfactant solution contained in a pipette of specified dimensions with a 2.9-mm-i.d. orifice is allowed to fall 90 cm onto 50 mL of the same solution contained in a cylindrical vessel maintained at a given temperature by means of a water jacket. The height of the foam produced in the cylindrical vessel is read immediately after all the solution has run out of the pipette and then again after a given amount of time.
# Using this method, the foam production (initial foam height in mm) and foam stability (final foam height after 10 minutes in mm) were measured at 0.1% aldonamide concentration, 40° C. and 0 ppm (parts per million) hardness. Aldonamides that were not soluble at 40° C. were measured at about 5°-10° C. above their Krafft points.
# [1] = Krafft point of aqueous dispersion of aldonamide; settings: 0.1% in water by weight
# Description: The temperature at and above which surfactants begin to form micelles instead of precipitates is referred to as the Krafft point (Tk) and at this temperature the solubility of a surfactant becomes equal to its CMC (numerical value at which micelles are formed).
# The Krafft point was measured by preparing 650 ml of a 0.1% or 1.0% dispersion of aldonamide in water by weight. If the surfactant was soluble at room temperature, the solution was slowly cooled to 0° C. […] (less than zero). If it precipitated out of solution, the temperature at which precipitation occurs was taken as the Krafft point.
# If the surfactant was insoluble at :room temperature, the dispersion was slowly heated until the solution became homogeneous. It was then slowly cooled until precipitation occurred. The temperature at which the surfactant precipitates out of solution upon cooling was taken as the Krafft point.
# [2] = Critical micelle concentration (Wilhelmy plate method); settings: 60° C.
# Description: The critical micelle concentration (CMC) is defined as the concentration at which a surfactant forms micelles in aqueous solution. Micellization is the preferred interfacial phenomena, since certain surfactant benefits such as detergency (the solubilization of soils), foaming, wetting or emulsification depend on the formation of these aggregates in solution.
# The CMC value of C8 /C10 oxypropyl D-gluconamide was determined by plotting surface tension as a function of log(concentration) and extrapolating linear points to obtain an intersection point. The concentration at this point was taken as the CMC. The technique used was the Wilhelmy plate method and the instrument used was a Lauda Auto-Tensiometer. While wishing not to be bound to theory, it is believed that surfactants with low CMC values form micelles more readily at lower concentrations than those with high CMC values.
# The critical micelle concentration (CMC) value of C8 /C10 oxypropyl D-gluconamide (molecular weight=375.02 g/mole, 65.9% C8, 34.1% C10) was determined and is set forth below: […]
# Water solubility = settings: in words
# [3] = Micellar shape and structure (packing parameter)
# Text: A theory of micellar structure, based upon the geometry of various micelle shapes and the space occupied by the surfactant has been disclosed by J. N. Israelachvili, D. J. Mitchell and B. W. Ninham in the J. Chem. Soc. Faraday Trans. 2, 1525, 72, (1976) which is given as the packing parameter (p).
# VT =V(CH3) +(nc -1)V(CH2) and represents the volume occupied by the hydrophobic groups in the micellar core at a given temperature.
# 1c =1.50+1.26 nc Å and represents the length of the hydrophobic group in the core.
# am =area per molecule or the cross-sectional area occupied by the hydrophilic group at the interface.
# nc =total number of carbons in the alkyl chain.
# Values obtained from the packing parameter (p) represent the following structures:
# The packing parameter (p) of C8 /C10 oxypropyl D-Gluconamide was determined as follows: […]
# [4] = Effectiveness in reducing surface tension (surface pressure at the CMC); settings: 60° C.
# Text: Effectiveness of a surfactant in reducing surface tension is defined as the maximum reduction in surface tension that can be obtained regardless of the bulk phase surfactant concentration.
# As mentioned before, surface tension reduction depends on the replacement of water molecules at the interface by surfactant molecules, therefore the effectiveness of a surfactant in reducing interfacial surface tension should reflect the saturated concentration of surfactant at the interface relative to that in bulk liquid phase. During this process the surface tension of water steadily decreases as bulk phase surfactant concentration increases. This will continue until the concentration reaches the critical micelle concentration (CMC), above which the surface tension remains nearly unchanged and the interface is saturated with surfactant. The surface tension at the CMC is therefore very close to the minimum interfacial tension or maximum surface pressure that the system can achieve. The surface pressure at this point, cmc, is a suitable measure of the effectiveness of a surfactant in reducing surface tension and is given as:
# cmc =20+2.3 nRT(Γmax) log[CMC/C20 ]
# n=1 which represents the number of ions whose surface concentration changes with the change in liquid phase surfactant concentration.
# R=8.314×107 ergs/mol K (Gas Constant)
# Γmax =-1/2·303RT(∂γ/∂log [Conc])T=3.85×10^-10 mole/cm^2
# CMC/C20 =is the ratio of the critical micelle concentration to the bulk phase surfactant concentration necessary to reduce the surface tension of water by 20 dyn/cm.
# The effectiveness of various surfactants in reducing surface tension ( cmc) were determined and are set forth below: […]
# [5] = Area per molecule at the interface; settings: 60° C.
# Text: The area per molecule of a surfactant at the water/air interface provides information on the degree of packing and the orientation of the adsorbed surfactant molecule. While not wishing to be bound by theory, it is believed that surfactants that have small area per molecule values tend to pack more closely at the interface than those with large area per molecule values. From the surface excess concentration at surface saturation (Γmax), the area per molecule (am) of C8 /C10 oxypropyl D-gluconamide was determined and is given by:
# am =1×10^16 /Nav Γmax
# Γmax =-1/2·303RT(∂γ/∂log[Conc])T
# NAV =6.0221×10^23 per gram mole (Avogadro's Number)
# The area per molecule (am) of several surfactants were-determined and are set forth below: […]
# [6] = Surface tension at the water/air interface; settings: 60° C.
# Description: An important characteristic feature that surfactants have is the tendency for them to absorb at the water/air interface in an oriented manner, thereby altering the interfacial free energy of that surface. The surface free energy per unit area or surface tension (γ), is a measure of this work and may be considered as the minimum amount of work required to bring sufficient surfactant molecules to the surface.
# The surface tension (γ) value of C8 /C10 oxypropyl D-gluconamide was determined and is set forth below: […]
# [7] = Efficiency in surface tension reduction (pC20)
# Text: Since surface tension reduction depends on the replacement of water molecules at the interface by surfactant molecules, the efficiency of a surfactant in reducing interfacial tension should reflect the concentration of surfactant at the interface relative to that in bulk liquid phase. A suitable measure of efficiency with which a surfactant performs this function can be described as pC20. This is defined as the negative logarithm of the bulk phase surfactant concentration necessary to reduce the surface tension of water by 20 dyn/cm and is given as:
# In general, pC20 values are usually close to the minimum concentration needed to saturate the interface with surfactant molecules.
# [8] = Effectiveness of adsorption at the interface (surface excess concentration at surface saturation); settings: for surface excess concentration at surface saturation (Γmax): 60° C. (T=333.15K)
# Text: The surface excess concentration at surface saturation (Γmax) is defined as a measure of the effectiveness of surfactant adsorption at the water/air interface and represents the maximum value to which adsorption can be obtained. Effectiveness of adsorption is related to the interfacial area occupied by the surfactant molecule. The smaller the effective cross-sectional area of a surfactant at the interface, the greater its effectiveness of adsorption. The effectiveness of adsorption is an important factor in determining surfactant properties such as detergency, foaming, wetting or emulsification. While not wishing to be bound by theory, it is believed that surfactants that absorb effectively at the interface tend have tightly packed coherent interfacial films and often provide better surfactant benefits than those with loosely packed noncoherent films. The effectiveness of adsorption of C8 /C10 oxypropyl D-gluconarnide was determined using the Gibbs equation given as:
# Γmax =-1/2.303RT(∂γ/∂log[Conc])T
# (∂γ/∂log[Conc)T =-24.574971 ergs/cm^2 (which is equivalent to the
# slope of a plot of γ versus log[Conc]) R=8.3 14×10^7 ergs/mol K (Gas Constant)
# The surface excess concentration at surface saturation (Γmax) of various surfactants were determined and are set forth below: […]
# [9] = listed as Dodecyl D-Gluconamide
# [10] = listed as dodecyl D-gluconamide
Compound,Foam Height Final (symbol) (Ross-Miles foam height; after 10 minutes),Foam Height Initial (symbol) (Ross-Miles foam height; initial),Krafft Point (0.1%) [1] [°C],"CMC / micelle formation (in words) [2, 9]","CMC / micelle formation (in words) [2, 10]",water solubility (Water solubility; [9]),water solubility (Water solubility; [10]),"VT, volume occupied by the hydrophobic groups in the micellar core ([3]; T=333.15° K.) [Å^3]","la, length of the hydrophobic group in the core ([3]; one oxygen atom taken as one methylene group) [Å]",surface pressure at the CMC (cmc) [4] [dyn/cm],area per molecule (am) [5] [Å^2],surface tension reduction (in words) [6],pC20 (in words) [7],CMC / micelle formation (in words) [2],surface excess concentration / cross sectional area (in words) [8],surface excess concentration at surface saturation (Γmax) ([8]; listed as C8 /C10 Oxypropyl D-Gluconamide),surface excess concentration at surface saturation (Γmax) ([8]; listed as C8 /C10 oxypropyl D-gluconamide)
"CCCCCCCCCCCCNC(=O)[C@H](O)[C@@H](O)[C@H](O)[C@H](O)CO [H, Dodecyl D-Gluconamide]",X,X,91,None,can not form micelles,Insoluble,insoluble in water,–,–,–,–,–,–,–,–,–,–
C8 /C10 oxypropyl D-gluconamide [Q],–,–,48,–,–,–,–,379.7,17.5,38.5,43.1,significant reduction in water surface tension,high pC20 value,forms micelles at a surprising low critical micelle concentration,small cross sectional area,3.85 × 10^-10 mole/cm^2,3.85×10^-10 mole/cm^2
